Measured values from patent US6358960B1, “Amidino derivatives and drugs containing the same as the active ingredient” (Ono Pharmaceutical Co., Ltd., priority 1998, dated 2002).

Biological target: T1, FVIIa (Homo sapiens, UniProt P08709)
T1 construct: FVIIa (ADI#407, final 10 nM); purchased ADI #407 (FVIIa); #4500 (tissue factor)
Assay: FVIIa inhibitory activity (chromogenic substrate S-2288, FVIIa/tissue factor)
Assay type: biochemical
Details: FVIIa 10 nM, tissue factor 10 nM, 2 mM CaCl2, 0.5 mM S-2288, 37° C., pH 7.5
Protocol: 10 μl of the compound of the present invention in 10% DMSO were added to 65 μl of the buffer solution including FVIIa (ADI#407, final 10 nM), tissue factor (ADI#4500, final 10 nM) and calcium chloride. The mixture was incubated for 10 minutes at 37° C., then 25 μl of 2 mM H-D-Ile-Pro-Arg-pNA (Chromogenix S-2288) was added (total volume 100 μl). The absorbance was measured at 405 nm at regular time intervals, and an initial velocity was calculated. The control value was measured with 10% of DMSO. Inhibitory activity was expressed as a 50% inhibition of control (IC50).
The final concentration of calcium chloride and S-2288 were 2 mM and 0.5 mM respectively. The buffer solution consisted of 50 mM tris-hydrochloric acid buffer (pH 7.5) containing 0.2% PEG6000 and 150 mM sodium chloride.

T1 sequence (P08709 213-466 limits assumed): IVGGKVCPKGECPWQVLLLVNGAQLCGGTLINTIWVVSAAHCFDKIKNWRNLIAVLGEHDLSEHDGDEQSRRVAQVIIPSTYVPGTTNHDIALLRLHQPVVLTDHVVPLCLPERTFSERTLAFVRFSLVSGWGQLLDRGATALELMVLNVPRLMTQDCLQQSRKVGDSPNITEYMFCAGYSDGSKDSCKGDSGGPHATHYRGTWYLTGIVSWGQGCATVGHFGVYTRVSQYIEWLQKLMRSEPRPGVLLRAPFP
T1 sequence (P08709 61-212 limits assumed): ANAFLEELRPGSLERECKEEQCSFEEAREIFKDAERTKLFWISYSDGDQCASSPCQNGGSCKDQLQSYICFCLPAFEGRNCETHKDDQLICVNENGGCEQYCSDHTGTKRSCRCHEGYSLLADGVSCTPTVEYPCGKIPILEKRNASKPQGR
T1 sequence (P13726 33-295 partner): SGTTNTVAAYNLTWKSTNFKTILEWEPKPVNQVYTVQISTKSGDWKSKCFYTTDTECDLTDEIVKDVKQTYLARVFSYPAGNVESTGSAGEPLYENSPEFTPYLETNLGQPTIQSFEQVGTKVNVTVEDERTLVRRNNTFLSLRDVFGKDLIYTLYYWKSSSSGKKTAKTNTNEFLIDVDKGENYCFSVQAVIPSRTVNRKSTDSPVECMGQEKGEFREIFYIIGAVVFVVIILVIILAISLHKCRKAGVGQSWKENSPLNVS

CC(C)CNC(=O)c1ccc(-c2cc3ccccc3cc2C(=O)Nc2ccc(C(=N)N)cc2)c(C(=O)O)c1 [Example 19(47), 2-(3-(4-amidinophenylcarbamoyl)naphthalen-2-yl)-5-((2-methylpropyl)carbamoyl)benzoic acid methanesulfonate]
IC50: 12 nM

COc1ccc(-c2ccc(C(=O)N[C@H](CO)C(C)(C)C)cc2C(=O)O)c(C(=O)Nc2ccc(C(=N)N)cc2)n1 [Example 46, 2-[2-(4-amidinophenylcarbamoyl)-6-methoxy-3-pyridyl]-5-[(1(S)-hydroxymethyl-2,2-dimethylpropyl)carbamoyl]benzoic acid methanesulfonate]
IC50: 13 nM
